# Patent US3995059A, “Pharmaceutical compositions containing fatty acid amide derivatives” (Sumitomo Chemical Company, Limited, priority 1966, dated 1976)
# Key:
# [1] = Acute oral toxicity, LD50 (Table 2); details: in vivo, mouse, P.O.
# Experimental: The extremely low toxicities of the present acid-amide compounds are illustrated in Table 2, in which the acute toxicities of some of the present compounds in mice are listed.
# As is seen from Table 2, no fatal case and no significant toxic symptoms were observed even in such large doses (per os) as 0.5 g. per 10 g., namely 50 g./kg. of the body weight. Also, no significant toxic symptoms, or fatal cases, were observed when the amides in amounts of 1, 0.5 or 0.2% in the diet were administered to mice everyday for three weeks. The appetite was normal and digestive functions were unchanged. When the internal organs were inspected by dissection, there was no appreciable change.
# Serum cholesterol = Serum cholesterol of rabbits fed a cholesterol rich diet; format: in vivo; details: 200 mg/day with cholesterol rich diet
# [2] = system: total cholesterol value in the blood serum; assay: Total cholesterol in blood serum of mice fed a diet enriched with cholesterol and bile acids (Table 1); format: in vivo; details: 0.2% in diet, oral, 8 to 12 days
# Experimental: The effectiveness of the compounds was tested by using mice fed on a specific diet which was enriched with cholesterol and bile acids. […] The amide compound as well was mixed with the specific diet in an amount of 0.2%, and continuously administered orally for 8 to 12 days. Then the total cholesterol value in the blood serum of the animals was evaluated.
# liver cholesterol = assay: Liver cholesterol (deposition of cholesterol and fat in the liver) of mice fed a cholesterol-rich diet (Table 1); format: in vivo; details: 0.2% in diet, oral, 8 to 12 days
# Rabbit serum cholesterol = Rabbit serum cholesterol lowering ratio after 9 weeks; format: in vivo; details: control 0%
compound,measurement,setting,value
CCCCC/C=C\C/C=C\CCCCCCCC(=O)NC(Cc1ccccc1)c1ccccc1 (centres unmarked),LD50,[1],> 50000 mg/kg
"CCCCC/C=C\C/C=C\CCCCCCCC(=O)N(C1CCCCC1)C1CCCCC1 [N,N-dicyclohexyl linoleamide]",Serum cholesterol,"Serum cholesterol; 2 weeks, control 250",250 mg. %
same,Serum cholesterol,"Serum cholesterol; 4 weeks, control 563",120 mg. %
same,Serum cholesterol,"Serum cholesterol; 6 weeks, control 890",62 mg. %
same,Serum cholesterol,"Serum cholesterol; 8 weeks, control 1150",62 mg. %
same,Serum cholesterol,"Serum cholesterol; 10 weeks, control 1750",65 mg. %
CC/C=C\C/C=C\C/C=C\CCCCCCCC(=O)NC(Cc1ccccc1)c1ccccc1 (centres unmarked) [drawing 32],Serum cholesterol,"[2]; experiment [V], control 372",238 mg %
same,Liver cholesterol,"liver cholesterol; experiment [V], control 2640",729 mg/100 g.
CCCCCCCC/C=C\CCCCCCCC(=O)NC(Cc1ccccc1)c1ccccc1 (centres unmarked) [drawing 33],Serum cholesterol,"[2]; experiment [V], control 372",245 mg %
same,Liver cholesterol,"liver cholesterol; experiment [V], control 2640",831 mg/100 g.
CCCCC/C=C\C/C=C\CCCCCCCC(=O)NC(C)c1ccc([N+](=O)[O-])cc1 (centres unmarked) [drawing 44],Serum cholesterol,"[2]; experiment [VIII], control 472",340 mg %
same,Liver cholesterol,"liver cholesterol; experiment [VIII], control 2652",1603 mg/100 g.
CCCCC/C=C\C/C=C\CCCCCCCC(=O)NC12CC3CC(CC(C3)C1)C2 [drawing 53],Serum cholesterol,"[2]; experiment [IX], control 336",288 mg %
same,Liver cholesterol,"liver cholesterol; experiment [IX], control 2200",721 mg/100 g.
CCCCC/C=C\C/C=C\CCCCCCCC(=O)NC(C)c1ccc(C)cc1 (centres unmarked) [drawing 61],Serum cholesterol,"[2]; experiment [X], control 554",228 mg %
same,Liver cholesterol,"liver cholesterol; experiment [X], control 3293",820 mg/100 g.
CCCCCCCC/C=C\CCCCCCCC(=O)NC(C)c1ccc(CC)cc1 (centres unmarked) [drawing 63],Serum cholesterol,"[2]; experiment [X], control 554",398 mg %
same,Liver cholesterol,"liver cholesterol; experiment [X], control 3293",1210 mg/100 g.
CCCCCCCC/C=C\CCCCCCCC(=O)NC(C)c1ccc(CC)cc1 (centres unmarked) [drawing 64],Serum cholesterol,"[2]; experiment [X], control 554",254 mg %
same,Liver cholesterol,"liver cholesterol; experiment [X], control 3293",841 mg/100 g.
CC/C=C\C/C=C\C/C=C\CCCCCCCC(=O)NC(C)c1ccc(C)cc1 (centres unmarked) [drawing 66],Serum cholesterol,"[2]; experiment [X], control 554",249 mg %
same,Liver cholesterol,"liver cholesterol; experiment [X], control 3293",1000 mg/100 g.
CC/C=C\C/C=C\C/C=C\CCCCCCCC(=O)NC(C)c1ccc(C)cc1 (centres unmarked) [drawing 67],Serum cholesterol,"[2]; experiment [X], control 554",295 mg %
same,Liver cholesterol,"liver cholesterol; experiment [X], control 3293",1015 mg/100 g.
CCCCC/C=C\C/C=C\CCCCCCCC(=O)NC(C)c1ccc(Cl)cc1 (centres unmarked) [drawing 72],Serum cholesterol,"[2]; experiment [XI], control 595",230 mg %
same,Liver cholesterol,"liver cholesterol; experiment [XI], control 3451",845 mg/100 g.
CCCCC/C=C\C/C=C\CCCCCCCC(=O)NC(C)c1ccc([N+](=O)[O-])cc1 (centres unmarked) [drawing 73],Serum cholesterol,"[2]; experiment [XI], control 595",275 mg %
same,Liver cholesterol,"liver cholesterol; experiment [XI], control 3451",1011 mg/100 g.
CCCCC/C=C\C/C=C\CCCCCCCC(=O)NC(C)c1ccc([N+](=O)[O-])cc1 (centres unmarked) [drawing 74],Serum cholesterol,"[2]; experiment [XI], control 595",315 mg %
same,Liver cholesterol,"liver cholesterol; experiment [XI], control 3451",1098 mg/100 g.
CCCCCCCC/C=C\CCCCCCCC(=O)NC(C)c1ccc(Br)cc1 (centres unmarked) [drawing 78],Serum cholesterol,"[2]; experiment [XI], control 595",253 mg %
same,Liver cholesterol,"liver cholesterol; experiment [XI], control 3451",921 mg/100 g.
CCCCCCCC/C=C\CCCCCCCC(=O)NC(C)c1ccc(Br)cc1 (centres unmarked) [drawing 79],Serum cholesterol,"[2]; experiment [XI], control 595",277 mg %
same,Liver cholesterol,"liver cholesterol; experiment [XI], control 3451",1009 mg/100 g.
CCCCCCCC/C=C\CCCCCCCC(=O)NC(CC)c1cccc([N+](=O)[O-])c1 (centres unmarked) [drawing 81],Serum cholesterol,"[2]; experiment [XI], control 595",289 mg %
same,Liver cholesterol,"liver cholesterol; experiment [XI], control 3451",906 mg/100 g.
CCCCCCCC/C=C\CCCCCCCC(=O)NC(CC)c1cccc([N+](=O)[O-])c1 (centres unmarked) [drawing 82],Serum cholesterol,"[2]; experiment [XI], control 595",315 mg %
same,Liver cholesterol,"liver cholesterol; experiment [XI], control 3451",1125 mg/100 g.
CCCCCCCC/C=C\CCCCCCCC(=O)NC(C)c1ccc(OC)cc1 (centres unmarked) [drawing 84],Serum cholesterol,"[2]; experiment [XI], control 595",306 mg %
same,Liver cholesterol,"liver cholesterol; experiment [XI], control 3451",1069 mg/100 g.
CCCCCCCC/C=C\CCCCCCCC(=O)NC(C)c1ccc(OC)cc1 (centres unmarked) [drawing 85],Serum cholesterol,"[2]; experiment [XI], control 595",318 mg %
same,Liver cholesterol,"liver cholesterol; experiment [XI], control 3451",1115 mg/100 g.
CC/C=C\C/C=C\C/C=C\CCCCCCCC(=O)NC(C)c1cccc(Cl)c1 (centres unmarked) [drawing 95],Serum cholesterol,"[2]; experiment [XI], control 595",275 mg %
same,Liver cholesterol,"liver cholesterol; experiment [XI], control 3451",995 mg/100 g.
CC/C=C\C/C=C\C/C=C\CCCCCCCC(=O)NC(C)c1cccc(Cl)c1 (centres unmarked) [drawing 96],Serum cholesterol,"[2]; experiment [XI], control 595",300 mg %
same,Liver cholesterol,"liver cholesterol; experiment [XI], control 3451",1029 mg/100 g.
CC/C=C\C/C=C\C/C=C\CCCCCCCC(=O)NC(CC)c1ccc([N+](=O)[O-])cc1 (centres unmarked) [drawing 97],Serum cholesterol,"[2]; experiment [XI], control 595",245 mg %
same,Liver cholesterol,"liver cholesterol; experiment [XI], control 3451",1004 mg/100 g.
CC/C=C\C/C=C\C/C=C\CCCCCCCC(=O)NC(CC)c1ccc([N+](=O)[O-])cc1 (centres unmarked) [drawing 98],Serum cholesterol,"[2]; experiment [XI], control 595",365 mg %
same,Liver cholesterol,"liver cholesterol; experiment [XI], control 3451",1325 mg/100 g.
CC/C=C\C/C=C\C/C=C\CCCCCCCC(=O)NC(Cc1ccccc1)c1ccccc1 (centres unmarked) [drawing 99],Serum cholesterol,"[2]; experiment [XI], control 595",240 mg %
same,Liver cholesterol,"liver cholesterol; experiment [XI], control 3451",623 mg/100 g.
CC/C=C\C/C=C\C/C=C\CCCCCCCC(=O)NC(Cc1ccccc1)c1ccccc1 (centres unmarked) [drawing 100],Serum cholesterol,"[2]; experiment [XI], control 595",275 mg %
same,Liver cholesterol,"liver cholesterol; experiment [XI], control 3451",1632 mg/100 g.
CC/C=C\C/C=C\C/C=C\CCCCCCCC(=O)NC(CC)c1ccc(OC)cc1 (centres unmarked) [drawing 102],Serum cholesterol,"[2]; experiment [XI], control 595",280 mg %
same,Liver cholesterol,"liver cholesterol; experiment [XI], control 3451",870 mg/100 g.
CC/C=C\C/C=C\C/C=C\CCCCCCCC(=O)NC(CC)c1ccc(OC)cc1 (centres unmarked) [drawing 103],Serum cholesterol,"[2]; experiment [XI], control 595",339 mg %
same,Liver cholesterol,"liver cholesterol; experiment [XI], control 3451",1620 mg/100 g.
CCCCC/C=C\C/C=C\CCCCCCCC(=O)NC(C)c1ccccc1 (centres unmarked) [drawing 136],LD50,[1],> 50000 mg/kg
CCCCC/C=C\C/C=C\CCCCCCCC(=O)NC(C)c1ccc(C)cc1 (centres unmarked) [drawing 138],LD50,[1],> 50000 mg/kg
CCCCC/C=C\C/C=C\CCCCCCCC(=O)NC12CC3CC(CC(C3)C1)C2 [drawing 140],LD50,[1],> 50000 mg/kg
CCCCC/C=C\C/C=C\CCCCCCCC(=O)NC(C)c1ccccc1 (centres unmarked) [drawing 144],Serum cholesterol,"Serum cholesterol; 2 weeks, control 250",250 mg. %
same,Serum cholesterol,"Serum cholesterol; 4 weeks, control 563",130 mg. %
same,Serum cholesterol,"Serum cholesterol; 6 weeks, control 890",65 mg. %
same,Serum cholesterol,"Serum cholesterol; 8 weeks, control 1150",60 mg. %
same,Serum cholesterol,"Serum cholesterol; 10 weeks, control 1750",52 mg. %
CCCCC/C=C\C/C=C\CCCCCCCC(=O)NC(C)c1ccc(C)cc1 (centres unmarked) [drawing 145],Rabbit serum cholesterol Towering ratio (after 9 weeks),Rabbit serum cholesterol; 100 mg/kg/day,60.1%
CCCCC/C=C\C/C=C\CCCCCCCC(=O)NC(CC)c1ccc(C)cc1 (centres unmarked) [drawing 146],Rabbit serum cholesterol Towering ratio (after 9 weeks),Rabbit serum cholesterol; 100 mg/kg/day,59.2%
CCCCC/C=C\C/C=C\CCCCCCCC(=O)NC(C)c1ccc(Cl)cc1 (centres unmarked) [drawing 147],Rabbit serum cholesterol Towering ratio (after 9 weeks),Rabbit serum cholesterol; 100 mg/kg/day,80.1%
CCCCC/C=C\C/C=C\CCCCCCCC(=O)NC(C)c1ccc(Cl)c(Cl)c1 (centres unmarked) [drawing 148],Rabbit serum cholesterol Towering ratio (after 9 weeks),Rabbit serum cholesterol; 100 mg/kg/day,61.5%
CC/C=C\C/C=C\C/C=C\CCCCCCCC(=O)NC(C)c1ccccc1C (centres unmarked) [drawing 151],Rabbit serum cholesterol Towering ratio (after 9 weeks),Rabbit serum cholesterol; 100 mg/kg/day,54.5%
CC(C)CCCCCCCCCCCCCCC(=O)NC(Cc1ccccc1)c1ccccc1 (centres unmarked) [iso-C17 H35 CO],Serum cholesterol,"[2]; experiment [V], control 372",221 mg %
same,Liver cholesterol,"liver cholesterol; experiment [V], control 2640",609 mg/100 g.
CCCCCC=CCC=CCCCCCCCC(=O)NC(Cc1ccccc1)c1ccccc1 (stereo not drawn) [l- C17 H31 CO],Serum cholesterol,"[2]; experiment [V], control 372",208 mg %
same,Liver cholesterol,"liver cholesterol; experiment [V], control 2640",623 mg/100 g.
CCCCCCCC/C=C\CCCCCCCC(=O)NC(Cc1ccccc1)c1ccccc1 (stereo not drawn) [l- drawing 33],Serum cholesterol,"[2]; experiment [V], control 372",263 mg %
same,Liver cholesterol,"liver cholesterol; experiment [V], control 2640",888 mg/100 g.
"CC[C@H](CC[C@@H](C)[C@H]1CC[C@H]2[C@@H]3CC=C4C[C@@H](O)CC[C@]4(C)[C@H]3CC[C@]12C)C(C)C [β-Sitosterol, reference compound]",Serum cholesterol,"Serum cholesterol; 2 weeks, control 250",250 mg. %
same,Serum cholesterol,"Serum cholesterol; 4 weeks, control 563",438 mg. %
same,Serum cholesterol,"Serum cholesterol; 6 weeks, control 890",875 mg. %
same,Serum cholesterol,"Serum cholesterol; 8 weeks, control 1150",1063 mg. %
same,Serum cholesterol,"Serum cholesterol; 10 weeks, control 1750",1200 mg. %
same,Rabbit serum cholesterol Towering ratio (after 9 weeks),Rabbit serum cholesterol; 800 mg/kg/day,21.2%
